Results on 25 compounds are retold here after ChEMBL document CHEMBL4177689, “In silico identification and in vivo characterization of small molecule therapeutic hypothermia mimetics” (Bioorg Med Chem, 2017).

Series [1] is filed under the species Rattus norvegicus. Briefly: Activation of CIRBP protein expression in rat R28 cells at 10 uM at 37 degC after 4 days by Western blot. The format is functional, cell-based. For orientation: A western blot detects proteins with antibodies after separation by electrophoresis.
Series [2] can be described thus: Cytotoxicity against rat R28 cells assessed as reduction in cell viability at 10 uM after 4 days by MTS assay. The format is cell-based. The settings on record: 96 h. A general note: Tetrazolium assays rely on reduction of a dye to a coloured formazan, in cell work by metabolically active cells.
For series [3], the system named is Rattus norvegicus. Briefly: Up regulation of CIRBP protein expression in Sprague-Dawley albino rat colon at 20 nmol/kg, ip measured after 4 days post dose by Western blot analysis. Format: functional, organism-based.
Series [4] concerns Rattus norvegicus. Briefly: Up regulation of CIRBP protein expression in Sprague-Dawley albino rat subcutaneous fat tissue at 20 nmol/kg, ip measured after 4 days post dose by Western blot analysis. The format is functional, organism-based.
In series [5] the test system is Rattus norvegicus. Briefly: Up regulation of CIRBP protein expression in Sprague-Dawley albino rat heart at 20 nmol/kg, ip measured after 4 days post dose by Western blot analysis. Format: functional, organism-based.
Series [6] deals with Rattus norvegicus. Briefly: Up regulation of CIRBP protein expression in Sprague-Dawley albino rat lung at 20 nmol/kg, ip measured after 4 days post dose by Western blot analysis. The format is functional, organism-based.
Series [7] relates to Rattus norvegicus. Briefly: Up regulation of CIRBP protein expression in Sprague-Dawley albino rat retina at 20 nmol/kg, ip measured after 4 days post dose by Western blot analysis. Format: functional, organism-based.
Series [8] in a line: Cytotoxicity against rat R28 cells assessed as reduction in cell viability at 250 uM after 4 days by MTS assay. Format: cell-based. The settings on record: 96 h.
The subject of series [9] is Rattus norvegicus. Briefly: Up regulation of CIRBP protein expression in Sprague-Dawley albino rat central nervous system at 20 nmol/kg, ip measured after 4 days post dose by Western blot analysis. Format: functional, organism-based.
Series [10] has as its system Rattus norvegicus. Briefly: Up regulation of CIRBP protein expression in Sprague-Dawley albino rat pancreas at 20 nmol/kg, ip measured after 4 days post dose by Western blot analysis. The format is functional, organism-based.
The subject of series [11] is Rattus norvegicus. Briefly: Up regulation of CIRBP protein expression in Sprague-Dawley albino rat testis at 20 nmol/kg, ip measured after 4 days post dose by Western blot analysis. The format is functional, organism-based.
The test system of series [12] is Rattus norvegicus. Briefly: Up regulation of CIRBP protein expression in Sprague-Dawley albino rat brain cortex at 20 nmol/kg, ip measured after 4 days post dose by Western blot analysis. Format: functional, organism-based.

Molecules are shown by their SMILES. The source made the active and inactive calls. The rule behind the calls is not given here.

`N=C(N)NC(=N)Nc1ccc(O)cc1`: the outcome in the series listed under Rattus norvegicus [1] was inactive.

Regarding `COC(=O)CSc1nc(N)nc2c1ncn2CCO`, the result in the series listed under Rattus norvegicus [1] was inactive.

Take `Nc1nc(SCC(=O)O)c2ncn(Cc3ccccc3)c2n1`: in the series filed under Rattus norvegicus [1], the result was inactive.

In the case of `C=CCn1cnc2c(SCC(=O)OC)nc(N)nc21`, in the series listed under Rattus norvegicus [1], the outcome was inactive.

As for `Oc1cccc(-c2cn(-c3ccc(O)c(F)c3)nn2)c1`, in the series listed under Rattus norvegicus [1], the result was Active.

For the compound `COCCn1cnc2c(SCC(=O)OC)nc(N)nc21`, in the series listed under Rattus norvegicus [1], the outcome was inactive.

As to `COC(=O)CSc1nc(N)nc2c1ncn2CC1CC1`, in the series filed under Rattus norvegicus [1], the result was inactive.

With `COC(=O)CSc1nc(N)nc2c1ncn2Cc1ccccc1`, the result in the series listed under Rattus norvegicus [1] was Active.

Regarding `COC(=O)C1C[C@@H](O)[C@@H](O)[C@@H](O)C1` (stereo not given in full), the result in the series filed under Rattus norvegicus [1] was inactive.

As to `NC(=O)Oc1cccc(OC(N)=O)c1`, the result in the series filed under Rattus norvegicus [1] was inactive.

Regarding `CC1(C)N=C(N)N=C(N)N1c1cccc(CN)c1`, the result in the series listed under Rattus norvegicus [1] was inactive.

Take `O=c1c(O)cccc2cc(O)c(O)c(O)c12` [PURPUROGALLIN]: the Activity entry in [2] was “Toxic”.

Take `O=C(NO)[C@@H](Cc1ccccc1)NS(=O)(=O)c1ccc(-n2cc(-c3ccc(Oc4ccccc4)cc3)nn2)cc1`: in series [2], the Activity entry is reported as “Toxic”.

Regarding `OCc1ncccc1O`, the outcome in the series filed under Rattus norvegicus [1] was inactive.

In the case of `O=C(O)c1cc(-n2cc(-c3cccc(O)c3)nn2)ccc1O`, in the series filed under Rattus norvegicus [1], the result was inactive.

Regarding `CC(=O)N1C(=O)C2(NCC(C)N2)c2ccccc21` (stereo not given), the result in the series filed under Rattus norvegicus [1] was inactive.

As for `COc1cccc2c1C(=O)c1c(O)c3c(c(O)c1C2=O)CC(O)(/C(C)=N/O)CC3CC1CC(N)C(O)C(C)O1` (stereo not given), the Activity result in series [2] is given as “Toxic”.

Take `Cc1cc(O)ccc1-n1cc(-c2cccc(O)c2)nn1`: the outcome in the series filed under Rattus norvegicus [1] was inactive.

Consider `COC(=O)CSc1nc(N)nc2c1ncn2Cc1ccc(OC)cc1`, for which the outcome in the series filed under Rattus norvegicus [1] was inactive.

As for `Oc1cc(NCC2CCCCC2)c(O)cc1CNC1CCCCC1`, the result in the series listed under Rattus norvegicus [1] was inactive.

With `Cc1cc(-n2cc(-c3ccc(O)cc3)nn2)ccc1O`, in the series filed under Rattus norvegicus [1], the outcome was Active.

Take `O=C(/C=C/c1ccc(O)c(O)c1)OC1C(O)CC(OC(=O)/C=C/c2ccc(O)c(O)c2)(C(=O)O)CC1O` (stereo not given): in series [2], the Activity entry was “Toxic”.

With `Oc1ccc(-c2cn(-c3ccc(O)c(C(F)(F)F)c3)nn2)cc1`, in the series listed under Rattus norvegicus [1], the result was Active.

As to `CCN(CC)CCn1cnc2c(SCC(=O)O)nc(N)nc21`, the outcome in the series with Rattus norvegicus [3], with Rattus norvegicus [4], in the series with Rattus norvegicus [5], in the series on Rattus norvegicus [6], in the series listed under Rattus norvegicus [1] and in the series with Rattus norvegicus [10] was Active. Also, the outcome in the series on Rattus norvegicus [11] was Active. Also, the result in the series on Rattus norvegicus [7], in the series on Rattus norvegicus [9] and with Rattus norvegicus [12] was inactive. The Activity entry in series [8] is “Non-Toxic”.

Turning to `Nc1ncnc2c1ncn2[C@@H]1O[C@H](CO)[C@H](O)[C@@H]1N`, the outcome in the series filed under Rattus norvegicus [1] was inactive.
